This passage reports AC50 results from ChEMBL document CHEMBL5291721, “A preclinical secondary pharmacology resource illuminates target-adverse drug reaction associations of marketed drugs” (Nat Commun, 2023).

For assay [1], the target named is T1, Beta-2 adrenergic receptor (Homo sapiens, UniProt P07550). Type of assay: functional, cell-based.
Assay [2] addresses T2, Gastrin/cholecystokinin type B receptor (Homo sapiens, UniProt P32239).
T2 sequence (P32239 whole entry): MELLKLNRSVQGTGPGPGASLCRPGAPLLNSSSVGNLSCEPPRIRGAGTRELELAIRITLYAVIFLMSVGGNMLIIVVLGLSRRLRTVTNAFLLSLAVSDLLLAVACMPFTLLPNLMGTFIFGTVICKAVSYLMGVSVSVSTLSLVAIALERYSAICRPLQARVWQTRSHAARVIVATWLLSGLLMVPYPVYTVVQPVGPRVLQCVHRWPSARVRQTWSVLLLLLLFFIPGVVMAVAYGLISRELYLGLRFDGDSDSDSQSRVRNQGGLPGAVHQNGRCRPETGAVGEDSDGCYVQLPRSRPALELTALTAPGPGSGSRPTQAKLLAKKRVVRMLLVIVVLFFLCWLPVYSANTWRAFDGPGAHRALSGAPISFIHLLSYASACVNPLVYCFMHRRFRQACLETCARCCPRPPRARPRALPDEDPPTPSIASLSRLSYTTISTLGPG

The target in a further assay is T3, Endothelin-1 receptor (Homo sapiens, UniProt P25101).
T3 sequence (P25101 whole entry): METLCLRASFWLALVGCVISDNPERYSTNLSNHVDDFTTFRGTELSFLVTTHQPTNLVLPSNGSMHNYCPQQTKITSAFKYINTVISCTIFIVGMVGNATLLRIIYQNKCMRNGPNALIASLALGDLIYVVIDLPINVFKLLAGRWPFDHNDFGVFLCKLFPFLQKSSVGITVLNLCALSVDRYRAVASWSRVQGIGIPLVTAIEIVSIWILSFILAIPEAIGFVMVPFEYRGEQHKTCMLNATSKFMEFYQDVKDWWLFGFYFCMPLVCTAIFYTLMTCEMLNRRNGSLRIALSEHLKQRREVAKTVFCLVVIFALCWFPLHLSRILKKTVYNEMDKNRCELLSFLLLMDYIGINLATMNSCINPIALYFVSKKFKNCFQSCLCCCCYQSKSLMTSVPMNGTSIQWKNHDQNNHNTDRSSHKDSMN

The target of assay [3] is T4, Amine oxidase [flavin-containing] A (Homo sapiens, UniProt P21397).
T4 sequence (P21397 whole entry): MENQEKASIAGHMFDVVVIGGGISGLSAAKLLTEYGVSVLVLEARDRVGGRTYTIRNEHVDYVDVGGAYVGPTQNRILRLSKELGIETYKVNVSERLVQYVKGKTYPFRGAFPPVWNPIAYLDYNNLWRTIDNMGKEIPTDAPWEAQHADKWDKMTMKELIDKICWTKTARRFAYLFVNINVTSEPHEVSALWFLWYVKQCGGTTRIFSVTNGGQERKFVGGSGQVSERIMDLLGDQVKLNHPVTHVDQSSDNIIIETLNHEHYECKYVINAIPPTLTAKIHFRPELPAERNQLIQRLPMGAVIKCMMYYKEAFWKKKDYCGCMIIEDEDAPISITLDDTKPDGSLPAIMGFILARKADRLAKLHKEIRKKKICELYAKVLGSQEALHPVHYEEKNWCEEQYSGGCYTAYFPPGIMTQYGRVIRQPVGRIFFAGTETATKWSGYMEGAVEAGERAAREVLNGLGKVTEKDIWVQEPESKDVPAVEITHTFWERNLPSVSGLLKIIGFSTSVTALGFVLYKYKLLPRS
Type of assay: functional.

In assay [4] the target is T5, Cannabinoid receptor 1 (Homo sapiens, UniProt P21554). Type of assay: functional, cell-based.
T5 sequence (P21554 whole entry): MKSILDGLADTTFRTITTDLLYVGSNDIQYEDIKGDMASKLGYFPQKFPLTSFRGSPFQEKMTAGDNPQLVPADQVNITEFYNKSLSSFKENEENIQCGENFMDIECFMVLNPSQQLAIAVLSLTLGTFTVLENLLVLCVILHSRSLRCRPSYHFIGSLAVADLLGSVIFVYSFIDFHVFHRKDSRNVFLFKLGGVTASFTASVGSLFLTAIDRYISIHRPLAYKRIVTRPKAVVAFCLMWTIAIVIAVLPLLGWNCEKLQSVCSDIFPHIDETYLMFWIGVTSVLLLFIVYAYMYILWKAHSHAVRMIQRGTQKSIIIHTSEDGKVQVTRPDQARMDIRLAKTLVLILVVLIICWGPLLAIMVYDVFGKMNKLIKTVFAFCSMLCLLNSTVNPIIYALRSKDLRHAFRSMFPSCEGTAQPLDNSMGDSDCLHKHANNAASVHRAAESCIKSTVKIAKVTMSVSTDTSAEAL
The target in assay [5] is T5, Cannabinoid receptor 1. Type of assay: functional, cell-based. The source holds these as a separate data set.
For assay [6], the target named is T5, Cannabinoid receptor 1.
Assay [7] deals with T1, Beta-2 adrenergic receptor.
The target in the next assay is Mu-type opioid receptor (Homo sapiens, UniProt P35372).
Chain of Mu-type opioid receptor (P35372 whole entry): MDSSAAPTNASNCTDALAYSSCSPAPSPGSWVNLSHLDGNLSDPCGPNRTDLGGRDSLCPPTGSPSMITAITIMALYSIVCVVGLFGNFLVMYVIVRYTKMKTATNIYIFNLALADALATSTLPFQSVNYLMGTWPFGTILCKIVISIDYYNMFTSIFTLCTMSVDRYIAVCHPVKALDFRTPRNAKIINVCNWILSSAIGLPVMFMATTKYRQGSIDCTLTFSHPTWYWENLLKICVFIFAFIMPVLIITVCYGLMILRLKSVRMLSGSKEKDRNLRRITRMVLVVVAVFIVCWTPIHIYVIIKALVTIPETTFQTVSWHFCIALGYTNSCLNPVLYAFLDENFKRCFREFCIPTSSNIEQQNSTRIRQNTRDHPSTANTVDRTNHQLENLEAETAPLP
The next assay deals with Melanocortin receptor 4 (Homo sapiens, UniProt P32245).
Chain of Melanocortin receptor 4 (P32245 whole entry): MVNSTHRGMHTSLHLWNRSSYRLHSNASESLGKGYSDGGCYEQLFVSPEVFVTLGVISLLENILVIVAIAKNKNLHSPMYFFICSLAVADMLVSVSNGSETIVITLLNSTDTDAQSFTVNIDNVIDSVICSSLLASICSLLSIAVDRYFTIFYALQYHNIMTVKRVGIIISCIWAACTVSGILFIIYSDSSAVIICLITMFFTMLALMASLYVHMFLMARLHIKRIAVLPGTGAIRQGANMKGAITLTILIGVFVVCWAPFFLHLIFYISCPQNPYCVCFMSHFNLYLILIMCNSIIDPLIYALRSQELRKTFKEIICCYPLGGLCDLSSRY
For assay [8], the target named is T6, 5-hydroxytryptamine receptor 1A (Homo sapiens, UniProt P08908).
T6 sequence (P08908 whole entry): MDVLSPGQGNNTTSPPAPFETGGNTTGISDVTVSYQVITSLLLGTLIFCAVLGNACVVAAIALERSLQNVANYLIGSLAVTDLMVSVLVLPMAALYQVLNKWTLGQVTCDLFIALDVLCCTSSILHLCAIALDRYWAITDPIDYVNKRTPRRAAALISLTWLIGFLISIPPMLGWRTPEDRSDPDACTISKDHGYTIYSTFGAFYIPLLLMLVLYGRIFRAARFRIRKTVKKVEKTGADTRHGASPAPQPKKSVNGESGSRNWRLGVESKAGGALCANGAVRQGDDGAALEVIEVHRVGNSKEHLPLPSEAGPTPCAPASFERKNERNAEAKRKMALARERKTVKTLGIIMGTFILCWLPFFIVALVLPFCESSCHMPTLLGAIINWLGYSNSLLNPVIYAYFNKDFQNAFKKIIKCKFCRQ
Type of assay: functional, cell-based.

Assay [9] has as its target T7, Alpha-1A adrenergic receptor (Homo sapiens, UniProt P35348).
T7 sequence (P35348 whole entry): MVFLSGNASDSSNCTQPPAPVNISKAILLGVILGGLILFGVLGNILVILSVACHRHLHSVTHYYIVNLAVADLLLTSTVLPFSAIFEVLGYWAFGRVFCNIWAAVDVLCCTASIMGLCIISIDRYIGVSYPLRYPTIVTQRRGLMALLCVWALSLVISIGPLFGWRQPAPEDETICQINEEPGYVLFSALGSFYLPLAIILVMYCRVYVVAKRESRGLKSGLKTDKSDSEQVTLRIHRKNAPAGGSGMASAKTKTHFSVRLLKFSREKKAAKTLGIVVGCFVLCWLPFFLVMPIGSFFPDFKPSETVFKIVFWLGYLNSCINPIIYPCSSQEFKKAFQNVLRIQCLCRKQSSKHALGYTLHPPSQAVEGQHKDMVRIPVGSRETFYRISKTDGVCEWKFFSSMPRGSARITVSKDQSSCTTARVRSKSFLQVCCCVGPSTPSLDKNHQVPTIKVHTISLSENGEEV
Note: assay procedure not described here.

T1 sequence (P07550 whole entry): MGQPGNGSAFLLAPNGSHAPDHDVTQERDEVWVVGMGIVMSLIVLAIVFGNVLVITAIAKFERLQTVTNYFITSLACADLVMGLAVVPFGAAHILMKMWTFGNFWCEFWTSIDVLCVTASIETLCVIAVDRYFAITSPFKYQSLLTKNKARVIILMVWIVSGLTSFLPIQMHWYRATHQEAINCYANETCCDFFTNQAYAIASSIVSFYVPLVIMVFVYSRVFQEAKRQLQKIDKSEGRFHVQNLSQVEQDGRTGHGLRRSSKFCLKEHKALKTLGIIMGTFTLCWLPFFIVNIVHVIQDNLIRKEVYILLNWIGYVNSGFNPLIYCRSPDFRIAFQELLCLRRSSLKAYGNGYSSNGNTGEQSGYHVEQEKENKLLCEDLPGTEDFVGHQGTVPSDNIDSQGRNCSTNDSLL

As to `NC(=O)CN1CCCC1=O`, the AC50 (in assay [1]; in assay [2]; on Endothelin-1 receptor; in assay [3]; at Cannabinoid receptor 1 [4]; at Cannabinoid receptor 1 [5]) was over 30 µM each time.
Turning to `Cn1c(=O)cc(N2CCC[C@@H](N)C2)n(Cc2ccccc2C#N)c1=O` [ALOGLIPTIN], the AC50 (usually the concentration at which the activity in the assay is half-maximal) was over 30 µM in assay [2]; over 30 µM on Endothelin-1 receptor; over 10 µM at Cannabinoid receptor 1 [6]; over 10 µM in assay [7]; 8.8 µM on Mu-type opioid receptor; over 30 µM at Melanocortin receptor 4.
In the case of `CCN1CCCC1CNC(=O)c1cc(S(=O)(=O)CC)c(N)cc1OC` (stereo not drawn) [AMISULPRIDE], the AC50 (in assay [1]; in assay [8]; in assay [2]; at Endothelin-1 receptor; in assay [3]; on Cannabinoid receptor 1 [4]) was over 30 µM in each case. The AC50 (at Cannabinoid receptor 1 [5]; in [9]) was over 30 µM in each case.
As to `CC(=O)OCC(=O)[C@@]1(O)[C@H](C)C[C@H]2[C@@H]3CCC4=CC(=O)C=C[C@]4(C)[C@@]3(F)[C@@H](O)C[C@@]21C` [DEXAMETHASONE ACETATE], the concentration at half-maximal activity (AC50) in assay [8] is over 10 µM; in [2], over 30 µM; at Endothelin-1 receptor, over 30 µM; in assay [3] it was over 10 µM; on Cannabinoid receptor 1 [4], 20 µM; at Cannabinoid receptor 1 [5], over 30 µM. Besides, the concentration at half-maximal activity (AC50) in assay [9] is over 10 µM; in [7], over 10 µM; on Mu-type opioid receptor it was over 30 µM; at Melanocortin receptor 4 it was over 30 µM.
As to `CC(=O)[C@]1(O)Cc2c(O)c3c(c(O)c2[C@@H](O[C@H]2C[C@H](N)[C@H](O)[C@H](C)O2)C1)C(=O)c1ccccc1C3=O` [IDARUBICIN], the AC50 (in [1]; in assay [2]; at Endothelin-1 receptor; in assay [3]; in assay [7]) was over 30 µM throughout.
In the case of `C/C(=C\C(=O)OCCCCCCCCC(=O)O)C[C@@H]1OC[C@H](C[C@@H]2O[C@H]2[C@@H](C)[C@H](C)O)[C@@H](O)[C@H]1O` [MUPIROCIN], the AC50 in [8] was over 10 µM; in [3], over 10 µM; on Cannabinoid receptor 1 [6] it was over 10 µM; in assay [9] it was over 10 µM; in [7], over 10 µM; on Mu-type opioid receptor, over 30 µM. The molecule further returned an AC50 on Melanocortin receptor 4 of over 10 µM.
Regarding `O=C1CN=C(c2ccccc2)c2cc([N+](=O)[O-])ccc2N1` [NITRAZEPAM], the concentration at half-maximal activity (AC50) in assay [8] was over 10 µM; in assay [3] it was over 10 µM; at Cannabinoid receptor 1 [6], over 10 µM; in assay [9] it was over 30 µM; in [7] it was over 10 µM; at Mu-type opioid receptor, over 30 µM. The molecule also displayed an AC50 on Melanocortin receptor 4 of over 10 µM.
In the case of `OCc1cc(C(O)CNCCCCCCOCCCCc2ccccc2)ccc1O` (stereo not drawn) [SALMETEROL], the AC50 was over 30 µM in assay [2]; over 10 µM in assay [3]; over 10 µM on Cannabinoid receptor 1 [6]; over 30 µM at Cannabinoid receptor 1 [4]; over 30 µM at Cannabinoid receptor 1 [5]; over 30 µM on Mu-type opioid receptor. Besides, the AC50 on Melanocortin receptor 4 was over 30 µM.
Turning to `Cn1cnc2c(F)c(Nc3ccc(Br)cc3Cl)c(C(=O)NOCCO)cc21` [SELUMETINIB], the AC50 in [3] was over 10 µM; in [9], over 10 µM; in assay [7] it was over 10 µM; at Mu-type opioid receptor, over 30 µM.
With `CCN(CC)CCNC(=O)c1cc(S(C)(=O)=O)ccc1OC` [TIAPRIDE], the AC50 (in assay [8]; in [2]; on Endothelin-1 receptor; in assay [3]; at Cannabinoid receptor 1 [4]; at Cannabinoid receptor 1 [5]) was over 30 µM each time. Further, the concentration at half-maximal activity (AC50) in [7] was over 30 µM.
Regarding `NC1CCN(c2nc3c(cc2F)c(=O)c(C(=O)O)cn3-c2ccc(F)cc2F)C1` (stereo not drawn) [TOSUFLOXACIN], the concentration at half-maximal activity (AC50) (in [2]; at Endothelin-1 receptor; in assay [3]; on Cannabinoid receptor 1 [4]; at Cannabinoid receptor 1 [5]; in assay [7]) was over 30 µM in each case.
